Laboratory results taken from ChEMBL document CHEMBL4765421, “Synthesis of natural 3'-Prenylchalconaringenin and biological evaluation of ameliorating non-alcoholic fatty liver disease and metabolic syndrome” (Eur J Med Chem, 2020).
The source made the active and inactive calls. No cut-off for these calls is given here.

Assays:
Mus musculus [1] = test: Hypolipidemic activity in tyloxapol-induced Kunming mouse model of hyperlipidemia assessed as reduction in liver LDL-C level administered orally measured after 24 hrs; format: functional, organism-based
3T3-L1 [2] = test: Hypolipidemic activity in mouse 3T3-L1 mature adipocytes assessed as reduction in lipid content at 1 uM by Oil Red O staining based assay relative to control; format: functional; set-up: scale not given: the % may be the effect or the level left
Mus musculus [3] = test: Hypolipidemic activity in tyloxapol-induced Kunming mouse model of hyperlipidemia assessed as kidney index at 50 mg/kg, po measured after 24 hrs (reference value: 11.20 +/- 0.58); format: functional
Mus musculus [4] = test: In vivo induction of AMPK in tyloxapol-induced Kunming mouse model of hyperlipidemia assessed as increase in AMPKalpha phosphorylation in liver at 50 to 100 mg/kg, po measured after 24 hrs by Western blot analysis; format: functional, organism-based; settings: dose 50-100 mg/kg
HepG2 [5] = test: Activation of AMPK in oleic, palmitic, linoleic and arachidonic acid 29:47:18:6 (v/v)-induced human HepG2 cells assessed as increase in ACC phosphorylation at 1 uM by Western blot analysis relative to control
HepG2 [6] = test: Hypolipidemic activity in oleic, palmitic, linoleic and arachidonic acid 29:47:18:6 (v/v)-induced hyperlipidemia in human HepG2 cells assessed as reduction in lipid content by Nile Red and DAPI staining based fluorescence microscopic analysis; format: functional, cell-based
Mus musculus [7] = test: Hypolipidemic activity in tyloxapol-induced Kunming mouse model of hyperlipidemia assessed as reduction in serum IL6 level at 50 to 100 mg/kg, po measured after 24 hrs; format: functional, organism-based; settings: dose 50-100 mg/kg
Mus musculus [8] = test: Hypolipidemic activity in tyloxapol-induced Kunming mouse model of hyperlipidemia assessed as epididymis white adipose tissue index at 50 mg/kg, po measured after 24 hrs (reference value: 23.43 +/- 3.10); format: functional
Mus musculus [9] = test: Hypolipidemic activity in tyloxapol-induced Kunming mouse model of hyperlipidemia assessed as perirenal white adipose tissue index at 100 mg/kg, po measured after 24 hrs (reference value: 18.14 +/- 1.44); format: functional
3T3-L1 [10] = test: Activation of AMPK in mouse 3T3-L1 matured adipocytes assessed as increase in AMPK phosphorylation at 1 uM by Western blot analysis relative to control; format: cell-based; settings: filed as activator
Mus musculus [11] = test: In vivo induction of AMPK in tyloxapol-induced Kunming mouse model of hyperlipidemia assessed as increase in AMPKalpha phosphorylation in white adipose tissue at 50 to 100 mg/kg, po measured after 24 hrs by Western blot analysis; format: functional, organism-based; settings: dose 50-100 mg/kg
Mus musculus [12] = test: In vivo induction of AMPK in tyloxapol-induced Kunming mouse model of hyperlipidemia assessed as increase in ACC phosphorylation in white adipose tissue at 50 to 100 mg/kg, po measured after 24 hrs by Western blot analysis; format: functional, organism-based; settings: dose 50-100 mg/kg
Mus musculus [13] = test: Hypolipidemic activity in tyloxapol-induced Kunming mouse model of hyperlipidemia assessed as spleen index at 100 mg/kg, po measured after 24 hrs (reference value: 3.87 +/- 0.05); format: functional
Mus musculus [14] = test: In vivo effect on PPAR signaling in tyloxapol-induced Kunming mouse model of hyperlipidemia assessed as increase in PPARalpha expression in liver at 50 to 100 mg/kg, po measured after 24 hrs by Western blot analysis; format: functional, organism-based; settings: dose 50-100 mg/kg
HepG2 [15] = test: Hypolipidemic activity in oleic, palmitic, linoleic and arachidonic acid 29:47:18:6 (v/v)-induced hyperlipidemia in human HepG2 cells assessed as reduction in lipid content at 20 uM by Oil Red O staining based assay relative to control; format: functional; set-up: scale not given: the % may be the effect or the level left
Mus musculus [16] = test: In vivo effect on PPAR signaling in tyloxapol-induced Kunming mouse model of hyperlipidemia assessed as increase in PPARalpha expression in white adipose tissue at 50 to 100 mg/kg, po measured after 24 hrs by Western blot analysis; format: functional, organism-based; settings: dose 50-100 mg/kg
Mus musculus [17] = test: Hypolipidemic activity in tyloxapol-induced Kunming mouse model of hyperlipidemia assessed as reduction in serum LDL level administered orally measured after 24 hrs; format: functional, organism-based
3T3-L1 [18] = test: Hypolipidemic activity in mouse 3T3-L1 mature adipocytes assessed as reduction in lipid content at 5 uM by Oil Red O staining based assay relative to control; format: functional; set-up: scale not given: the % may be the effect or the level left
Mus musculus [19] = test: Hypolipidemic activity in tyloxapol-induced Kunming mouse model of hyperlipidemia assessed as reduction in serum AST level administered orally measured after 24 hrs; format: functional, organism-based
Mus musculus [20] = test: Hypolipidemic activity in tyloxapol-induced Kunming mouse model of hyperlipidemia assessed as reduction in liver AST level administered orally measured after 24 hrs; format: functional, organism-based
Mus musculus [21] = test: Hypolipidemic activity in tyloxapol-induced Kunming mouse model of hyperlipidemia assessed as reduction in liver fibrosis at 50 to 100 mg/kg, po measured after 24 hrs by Masson's trichrome staining based assay; format: functional, organism-based; settings: dose 50-100 mg/kg
Mus musculus [22] = test: In vivo induction of AMPK in tyloxapol-induced Kunming mouse model of hyperlipidemia assessed as decrease in SREBP1-C expression in white adipose tissue at 50 to 100 mg/kg, po measured after 24 hrs by Western blot analysis; format: functional, organism-based; settings: dose 50-100 mg/kg
Mus musculus [23] = test: In vivo effect on PPAR signaling in tyloxapol-induced Kunming mouse model of hyperlipidemia assessed as decrease in PPARgamma expression in liver at 50 to 100 mg/kg, po measured after 24 hrs by Western blot analysis; format: functional, organism-based; settings: dose 50-100 mg/kg
Mus musculus [24] = test: Hypolipidemic activity in tyloxapol-induced Kunming mouse model of hyperlipidemia assessed as kidney index at 100 mg/kg, po measured after 24 hrs (reference value: 11.20 +/- 0.58); format: functional
Mus musculus [25] = test: In vivo induction of AMPK in tyloxapol-induced Kunming mouse model of hyperlipidemia assessed as increase in AKT phosphorylation in liver at 50 to 100 mg/kg, po measured after 24 hrs by Western blot analysis; format: functional, organism-based; settings: dose 50-100 mg/kg
Mus musculus [26] = test: In vivo effect on PPAR signaling in tyloxapol-induced Kunming mouse model of hyperlipidemia assessed as decrease in PPARbeta expression in white adipose tissue at 50 to 100 mg/kg, po measured after 24 hrs by Western blot analysis; format: functional, organism-based; settings: dose 50-100 mg/kg
3T3-L1 [27] = test: Activation of AMPK in mouse 3T3-L1 matured adipocytes assessed as increase in ACC phosphorylation at 1 uM by Western blot analysis relative to control; format: cell-based; settings: filed as activator
Mus musculus [28] = test: Hypolipidemic activity in tyloxapol-induced Kunming mouse model of hyperlipidemia assessed as reduction in serum lipid level at 50 to 100 mg/kg, po measured after 24 hrs by macroscopic analysis; format: functional, organism-based; settings: dose 50-100 mg/kg
Mus musculus [29] = test: Hypolipidemic activity in tyloxapol-induced Kunming mouse model of hyperlipidemia assessed as liver index at 50 mg/kg, po measured after 24 hrs (reference value: 65.00 +/- 0.87); format: functional
HepG2 [30] = test: Activation of AMPK in oleic, palmitic, linoleic and arachidonic acid 29:47:18:6 (v/v)-induced human HepG2 cells assessed as increase in AMPK phosphorylation at 1 uM by Western blot analysis relative to control; settings: filed as activator
Mus musculus [31] = test: Hypolipidemic activity in tyloxapol-induced Kunming mouse model of hyperlipidemia assessed as reduction in liver MPO level at 50 to 100 mg/kg, po measured after 24 hrs; format: functional, organism-based; settings: dose 50-100 mg/kg
Mus musculus [32] = test: Hypolipidemic activity in tyloxapol-induced Kunming mouse model of hyperlipidemia assessed as reduction in liver triglyceride level administered orally measured after 24 hrs; format: functional, organism-based
Mus musculus [33] = test: Hypolipidemic activity in tyloxapol-induced Kunming mouse model of hyperlipidemia assessed as reduction in fatty liver phenotype at 50 to 100 mg/kg, po measured after 24 hrs; format: functional, organism-based; settings: dose 50-100 mg/kg

CC(C)=CCC/C(C)=C/Cc1c(O)cc(O)c(C(=O)/C=C/c2ccc(O)cc2)c1O
Activity (Mus musculus [1]): Dose-dependent effect
Activity (3T3-L1 [2]): 39.16%
Activity_index (Mus musculus [3]): 9.46
Activity (Mus musculus [4]): Active
Activity (HepG2 [5]): 31.7%
Activity (HepG2 [6]): Dose-dependent effect
Activity (Mus musculus [7]): Active
Activity_index (Mus musculus [8]): 14.85
Activity_index (Mus musculus [9]): 9.83
Activity (3T3-L1 [10]): 49%
Activity (Mus musculus [11]): Active
Activity (Mus musculus [12]): Active
Activity_index (Mus musculus [13]): 2.62
Activity (Mus musculus [14]): Active
Activity (HepG2 [15]): 66.31%
Activity (Mus musculus [16]): Active
Activity (Mus musculus [17]): Dose-dependent effect
Activity (3T3-L1 [18]): 71.33%
Activity (Mus musculus [19]): Dose-dependent effect
Activity (Mus musculus [20]): Dose-dependent effect
Activity (Mus musculus [21]): Active
Activity (Mus musculus [22]): Active
Activity (Mus musculus [23]): Active
Activity_index (Mus musculus [24]): 9.29
Activity (Mus musculus [25]): Active
Activity (Mus musculus [26]): Active
Activity (3T3-L1 [27]): 260%
Activity (Mus musculus [28]): Active
Activity_index (Mus musculus [29]): 55.64
Activity (HepG2 [30]): 42.9%
Activity (Mus musculus [31]): Active
Activity (Mus musculus [32]): Dose-dependent effect
Activity (Mus musculus [33]): Active
